The text below walks through data of paper PMC10233829 (ACS Omega, 2023).

Each structure is given as a SMILES string.

Compound `O=C(O)c1cn(C2CC2)c2cc(N3CCN(C(=O)CCCCBr)CC3)c(F)cc2c1=O` [Compound 11, 7-[4-(5-Bromopentanoyl)-piperazin-1-yl]-1-cyclopropyl-6-fluoro-4-oxo-1,4-dihydro-quinoline-3-carboxylic Acid] had a melting point of 225.7 to 226.2 °C.

For orientation: melting point means the temperature, or range, at which the solid turns liquid.
